Values joined by “and” are separate entries in the source; they are usually repeats but may differ in a detail not shown here. Equal values may be shown once.

Data on 34 compounds can be found in the Deep4Chem optical property database.

This data set in a line: solvent given as SMILES.
The mark [1] stands for this setting: in O=P(c1ccccc1)(c1ccccc1)c1ccc2oc3ccc(P(=O)(c4ccccc4)c4ccccc4)cc3c2c1.

In the case of `Cc1csc2[n+]1[B-](F)(F)n1c(c3cccc4cccc1c43)=N2`, the fluorescence lifetime (in ClCCl) worked out at 6.5 ns.

`CCC1=C(C)C2=C(C)c3c(I)c(I)cn3[B-](F)(F)[N+]2=C1C`: the fluorescence lifetime is, setting by setting: (in C1CCCCC1) 0.259 ns; (in CC(C)=O) 0.127 ns; (in CCO) 0.125 ns; (in CCOC(C)=O) 0.16 ns; (in CO) 0.122 ns; (in OCC(F)(F)F) 0.147 ns.

Regarding `COc1cccc2c1-c1ccccc1C2=O`, the fluorescence lifetime amounted to 10.7 ns (in C1CCCCC1) and 1.8 ns (in CC#N).

Turning to `[O-][n+]1c(-c2ccccc2)cc(N2CCOCC2)nc1/C=C/c1ccccc1`, the fluorescence lifetime (in ClCCl) worked out at 4.76 ns.

For the compound `C(=C\c1c2ccccc2cc2ccccc12)/c1cccc2ccccc12`, the fluorescence lifetime came out at 5 ns (in CC1CCCCC1) and 4.5 ns (in CC#N).

With `COc1cccc2c1C(=O)c1ccccc1-2`, the fluorescence lifetime was 2.1 ns (in CC#N); 8.52 ns (in CC(C)O); 7.27 ns (in CCCCO); 6.93 ns (in CCCO); 5.98 ns (in CCO); 3.82 ns (in CO).

With `C(=C\c1ccc(-c2ccc(/C=C/c3ccc(-n4c5ccccc5c5ccccc54)cc3)s2)s1)/c1ccc(-n2c3ccccc3c3ccccc32)cc1`, the fluorescence lifetime is 1.06 ns (in C1CCOC1); 1.08 ns (in CC#N); 1.08 ns (in CC(C)=O); 1.08 ns (in CN(C)C=O); 1.05 ns (in Cc1ccccc1).

Compound `Cc1cc(C)c2cc3cc(C)ncc3cc2c1` registered a fluorescence lifetime (in CCO) of 18 ns.

For `Nc1ccc2c(C(F)(F)F)cc(=O)oc2c1`, the fluorescence lifetime runs as follows: (in C1CCC2CCCCC2C1) 1.9 ns; (in C1CCCCC1) 1.2 ns; (in C1COCCO1) 4.65 ns; (in CC1CCCCC1) 1.22 ns; (in CC#N) 5.2 ns and 5.13 ns; (in CC(C)=O) 4.97 ns. Moreover, the fluorescence lifetime reads like this: (in CC(C)O) 5.28 ns; (in CCC(C)CC) 0.842 ns; (in CCCC(C)C) 0.406 ns; (in CCCCCC) 0.854 ns; (in CCCCCCCCO) 5.4 ns; (in CCCCCCO) 5.29 ns. Also, the fluorescence lifetime (in CCCCO) was 5.24 ns; the fluorescence lifetime (in CCO) was found to be 5.38 ns; the fluorescence lifetime (in CCOC(C)=O) stood at 4.67 ns; the fluorescence lifetime (in CN(C)C=O) turned out to be 5.22 ns; the fluorescence lifetime (in CO) came out at 5.31 ns; the fluorescence lifetime (in CS(C)=O) was 5 ns.

Take `CCn1c2ccccc2c2cc(-c3cc(-c4ccc5c(c4)c4ccccc4n5CC)nc(C#N)n3)ccc21`: under “in C1CCOC1”, the fluorescence lifetime is 2.57 ns.

Where the note is “in ClCCl”, `c1cc2c3c(c1)ccc1[n+]3[B-]3(Oc4cccc5ccc6[n+](c45)[B-](O2)(O3)n2c-6cc3c4ccccc4c4ccccc4c32)n2c-1cc1c3ccccc3c3ccccc3c12` showed a fluorescence lifetime of 3.65 ns.

Under setting [1], `c1ccc(-c2nc(-c3ccccc3)nc(-c3cc(-n4c5ccccc5c5ccccc54)c(-n4c5ccccc5c5ccccc54)c(-n4c5ccccc5c5ccccc54)c3)n2)cc1` displayed a fluorescence lifetime of 13.1 ns.

`COc1ccc(/C=C/C2=[O+][B-](F)(F)OC(/C=C/c3ccc(OC)cc3)=C2c2ccccc2)cc1`: the fluorescence lifetime was 1.5 ns (in CC#N); 1.43 ns (in CC(C)=O); 1.18 ns (in CCOC(C)=O); 0.9 ns (in CCOCC); 0.7 ns (in ClC(Cl)(Cl)Cl); 1.35 ns (in ClCCl).

In the case of `O=C(c1ccc(N2c3ccccc3Oc3ccccc32)cc1)c1ccc(N2c3ccccc3Oc3ccccc32)cc1`, for the setting “in c1cc(-n2c3ccccc3c3ccccc32)cc(-n2c3ccccc3c3ccccc32)c1”, the fluorescence lifetime was found to be 23 ns.

`COC(=O)c1cc(=O)n(C)c2cc(-c3ccc(Oc4ccccc4)cc3)sc12` registered a fluorescence lifetime (in ClCCl) of 2.83 ns.

On to `CC1=C2c3ccccc3C(c3[nH]c(C)cc3C)=[N+]2[B-](F)(F)n2c(C)cc(C)c21`, for which the fluorescence lifetime (in ClCCl) was found to be 7.3 ns.

Regarding `N#Cc1cccc(C#N)c1-n1c2ccccc2c2cc(-c3ccc4c(c3)c3ccccc3n4-c3c(C#N)cccc3C#N)ccc21`, under “in Cc1ccccc1”, the fluorescence lifetime turned out to be 28 ns.

In turn, `COc1c2ccccc2c(OC)c2c1c1cccc(OC)c1n2C` registered a fluorescence lifetime (in C1CCCCC1) of 21.8 ns, a fluorescence lifetime (in CC#N) of 26.7 ns, a fluorescence lifetime (in CO) of 25.2 ns and a fluorescence lifetime (in ClCCl) of 22 ns.

Take `Cn1c(=O)c(/N=N/c2ccc(S(=O)(=O)O)c3ccccc23)c(O)c2ccccc21`: where the note is “in CS(C)=O”, the fluorescence lifetime was found to be 0.05 ns.

`O=S(=O)(c1ccc(-c2ccc(-n3c4ccccc4c4ccccc43)cc2)cc1)c1ccc(-c2ccc(-n3c4ccccc4c4ccccc43)cc2)cc1` returned a fluorescence lifetime (in Cc1ccccc1) of 2.55 ns.

Consider `CN(C)c1ccc(/C=C/c2nc3c4ccccc4c4ccccc4c3o2)cc1`, for which the fluorescence lifetime (in CC#N) stood at 2.13 ns.

Turning to `CCCCOC(=O)c1cc(Cl)c2c3c(Cl)cc4c5c(cc(Cl)c(c6c(Cl)cc(C(=O)OCCCC)c1c26)c53)C(=O)N(c1c(C(C)C)cccc1C(C)C)C4=O`, the fluorescence lifetime (in Cc1ccccc1) was determined as 4.86 ns.

For the compound `F[B-]1(F)OC(c2ccc(Br)cc2)=Cc2c3ccccc3c3ccccc3[n+]21`, for the setting “in ClC(Cl)Cl”, the fluorescence lifetime worked out at 0.436 ns.

Turning to `CCCCCCCCCCCCOc1cc2cc(N(C)C)ccc2cc1C=C(C#N)C#N`, the fluorescence lifetime (in CS(C)=O) is 2.2 ns.

Consider `c1ccc(-c2nc(-c3ccccc3)nc(-c3cc(-n4c5ccccc5c5ccccc54)c(-n4c5ccccc5c5ncccc54)c(-n4c5ccccc5c5ccccc54)c3)n2)cc1`, for which the fluorescence lifetime under setting [1] stood at 20.4 ns.

Compound `CCCCCCCCN1C(=O)c2ccc3c4c(-c5ccc(-n6c7ccccc7c7ccccc76)cc5)cc5c6c(cc(-c7ccc(-n8c9ccccc9c9ccccc98)cc7)c(c7ccc(c2c37)C1=O)c64)C(=O)N(CCCCCCCC)C5=O` returned a fluorescence lifetime (in ClC(Cl)Cl) of 3.3 ns.

Take `CC1=CC2=Nc3nc(C)[n+](C)cc3CN2C=C1`: the fluorescence lifetime is, setting by setting: (in CC#N) 5.45 ns; (in CCO) 5.31 ns; (in O) 5.23 ns.

With `Cc1c(C)c(N2c3ccccc3Oc3ccccc32)c(C)c(C)c1B(c1c(C)c(C)c(N2c3ccccc3Oc3ccccc32)c(C)c1C)c1c(C)c(C)c(N2c3ccccc3Oc3ccccc32)c(C)c1C`, where the note is “in CC(C)(C)c1ccc(-n2c3ccc([Si](c4ccccc4)(c4ccccc4)c4ccccc4)cc3c3cc([Si](c4ccccc4)(c4ccccc4)c4ccccc4)ccc32)cc1”, the fluorescence lifetime was 1.3 ns.

For the compound `O=[N+]([O-])c1ccc(/C=C/c2nc3c4ccccc4c4ccccc4c3o2)cc1`, the fluorescence lifetime (in CC#N) turned out to be 3.01 ns.

Under “in CCO”, `CCOC(=O)CCCCCn1c2ccc(OC)cc2c(=O)c2cc3c(cc21)c(=O)c1cc(OC)ccc1n3CCCCCC(=O)OCC` came in with a fluorescence lifetime of 13.4 ns.

Under “in ClCCl”, `CCN(CC)c1ccc2c(-c3ccccc3C(=O)O)c3c([o+]c2c1)/C(=C/c1ccc(N(C)C)cc1)CCC3` yielded a fluorescence lifetime of 0.25 ns.

Take `c1ccc(N2c3ccccc3Sc3cc(-c4cccc5nc6ccccc6cc45)ccc32)cc1`: the fluorescence lifetime by setting is: (in CC#N) 7.58 ns; (in CCCCCC) 2.05 ns; (in CCOCC) 3.96 ns; (in ClCCl) 3.32 ns.

On to `Cn1ccc(-c2nc3ccccc3nc2/C=C/N2CCCC2)c1`, for which the fluorescence lifetime (in C1CCCCC1) was 1.87 ns; the fluorescence lifetime (in C1CCOC1) is 6.61 ns; the fluorescence lifetime (in CC#N) came to 5.96 ns; the fluorescence lifetime (in CC(C)=O) was 6.72 ns; the fluorescence lifetime (in CCO) amounted to 0.39 ns; the fluorescence lifetime (in CO) was determined as 0.12 ns. Also, the fluorescence lifetime is 5.54 ns (in CS(C)=O), 5.1 ns (in Cc1ccccc1) and 8.33 ns (in ClCCl).

For the setting “in CC#N”, `Cc1ccc(-[c+]2c3ccccc3sc3ccccc32)cc1` registered a fluorescence lifetime of 1 ns.
